The values below come from patent publication US7618975B2, “4-arylamino-quinazolines and analogs as activators of caspases and inducers of apoptosis and the use thereof” (Myriad Pharmaceuticals, Inc., priority 2003, dated 2009).

Experiment [1] deals with T-47D cells. Description: Caspase cascade activation (N-(Ac-DEVD)-N′-ethoxycarbonyl-R110 fluorogenic substrate) in T-47D cells. Type of experiment: cell-based, Human. The settings on record: for EC50: Homo sapiens, T47D.
Experiment [2] has as its system tubulin (Cytoskeleton #ML113, MAP-rich). Nature of the experiment: Inhibition of tubulin polymerization (DAPI fluorescence). As to conditions: 30 minutes preincubation, 30 minutes at 37° C. Type of experiment: biochemical. Here is the method:
Lyophilized tubulin (Cytoskeleton #ML113, 1 mg, MAP-rich) was assayed for the effect of the test compound on tubulin polymerization as measured by change in fluorescence for 4′,6-diamidino-2-phenylindole (DAPI) (Barron, D. M. et al. Analytical Biochem., 2003, 315, 49-56.). 1 μl of serial dilutions of each test compound (from 100×DMSO stock) was added in 96 well plate format and preincubated for 30 minutes with 94 ul of the non-GTP supplemented tubulin supernatant. 5 μl of DAPI/GTP solution was added to initiate polymerization and incubated for 30 minutes at 37° C. Fluorescence was read with excitation 350 nm, emission wavelength 485 nm on a Tecan Spectraflour Plus. Polymerized tubulin (DMSO and with the tubulin stabilizer Taxol® (paclitaxel)) gives a higher DAPI fluorescence as compared to non-polymerized tubulin (vinblastine and colchicine used to determine baseline).

A further experiment relates to DLD cells. Nature of the experiment: Inhibition of cell proliferation (GI50, CellTiter-Glo). The format is cell-based. The settings on record: Homo sapiens; 48 h incubation. Here is the method:
(§1) T-47D, DLD, H1299, MX-1 and SW620 cells were grown and harvested as in Example 143. […] An aliquot of 45 μL of cells was added to a well of a 96-well microtiter plate containing 5 μL of a 10% DMSO in RPMI-1640 media solution without compound as the control sample for maximal cell proliferation (LMax). The samples were mixed by agitation and then incubated at 37° C. for 48 h in a 5% CO2-95% humidity incubator. After incubation, the samples were removed from the incubator and 25 μL of CellTiter-Glo™ reagent (Promega) was added. The samples were mixed by agitation and incubated at room temperature for 10-15 min. Plates were then read using a luminescent plate reader (Model SPECTRAfluor Plus, Tecan) to give Ltest values.
(§2) The samples were mixed by agitation and then incubated at 37° C. for 0.5 h in a 5% CO2-95% humidity incubator. After incubation, the samples were removed from the incubator and 25 μL of CellTiter-Glo™ reagent (Promega) was added. The samples were mixed by agitation and incubated at […] 10-15 min at room temperature in a 5% CO2-95% humidity incubator. Fluorescence was read as above, (LStart) defining luminescence for initial cell number used as baseline in GI50 determinations.
Background: Cellular ATP, detected with luciferase, serves as a proxy for viable cell number.

Experiment [3] deals with T-47D cells. Described as above. Type of experiment: cell-based. The settings on record: Homo sapiens, T47D; 48 h incubation. Here is the method: as §1, §2
For a further experiment, the system named is SW620 cells. The description is as above. The format is cell-based. The settings on record: Homo sapiens, SW-620; 48 h incubation. The procedure:
as §1, §2

The test system of another experiment is H1299 cells. The experiment is described as above. As to conditions: Homo sapiens, NCI-H1299; 48 h incubation. Type of experiment: cell-based. Here is the method: as §1, §2
Another experiment deals with MX-1 cells. Described as above. The format is cell-based. As to conditions: Homo sapiens, MX1; 48 h incubation. Here is the method: as §1, §2
Experiment [4] has as its target tyrosine kinase of Epidermal Growth Factor Receptor (Homo sapiens, UniProt P00533). As to conditions: Rewcastle et al. 1995; read-out: IC50 EGFR tyrosine kinase; cited from earlier work.
Experiment [5] concerns the target T1, Human Type II Topoisomerase (p170 Form) (Homo sapiens, UniProt P11388).
T1 construct: purchased TopoGEN, Inc., Columbus, Ohio
Description: Photo-crosslinking of radiolabeled compound to Topoisomerase II. The format is binding. As to conditions: 50 nM, 60 minutes, UV 254 nm; FIG. 3. The procedure: 30 Units (15 ul) Human Type II Topoisomerase (p170 Form) (from TopoGEN, Inc., Columbus, Ohio) was incubated with 50 nM radiolabeled Example 102 compound for 60 minutes at room temperature.
(Radiolabeled Example 102 compound stock is 16.67 uM, 60 Ci/mmol, 1 Ci/ml American Radiolabeled Chemicals, Inc., St. Louis, Mo. Samples were either UV irradiated (+) with a short wavelength UV Source (254 nm) for 10 minutes at a distance of 3.5 cm or not irradiated (−). 8 ul of 5× sample buffer (150 mM Tris, pH 6.8, 50% glycerol, 1% SDS, 50 mM dithiothreitol, 62 mg/ml bromophenol blue) was added to the samples and boiled for 5 minutes. The entire sample was then loaded onto a 6% Tris-Glycine SDS-gel (10 well, 1.5 mm thickness) (Invitrogen, Carlsbad, Calif.). The gel was stained with 1% Coomassie Brilliant Blue in 40% methanol, 7.5% acetic acid for 2 hours then de-stained in several changes of de-stainer (40% methanol, 7.5% acetic acid). The gel was then incubated in Amplify (Amersham, Piscataway, N.J.) for 30 minutes at room temperature and then dried down on Whatman filter paper at 80° C. for 2 hours on a gel dryer. The dried gel was put on Hyperfilm (Amersham) in a film cassette and placed at −80° C. for 5-7 days.

pIC50: −log10 of the molar value. Where two headings read alike, the source gives them in different places.

Chain of tyrosine kinase of Epidermal Growth Factor Receptor (P00533 25-1210): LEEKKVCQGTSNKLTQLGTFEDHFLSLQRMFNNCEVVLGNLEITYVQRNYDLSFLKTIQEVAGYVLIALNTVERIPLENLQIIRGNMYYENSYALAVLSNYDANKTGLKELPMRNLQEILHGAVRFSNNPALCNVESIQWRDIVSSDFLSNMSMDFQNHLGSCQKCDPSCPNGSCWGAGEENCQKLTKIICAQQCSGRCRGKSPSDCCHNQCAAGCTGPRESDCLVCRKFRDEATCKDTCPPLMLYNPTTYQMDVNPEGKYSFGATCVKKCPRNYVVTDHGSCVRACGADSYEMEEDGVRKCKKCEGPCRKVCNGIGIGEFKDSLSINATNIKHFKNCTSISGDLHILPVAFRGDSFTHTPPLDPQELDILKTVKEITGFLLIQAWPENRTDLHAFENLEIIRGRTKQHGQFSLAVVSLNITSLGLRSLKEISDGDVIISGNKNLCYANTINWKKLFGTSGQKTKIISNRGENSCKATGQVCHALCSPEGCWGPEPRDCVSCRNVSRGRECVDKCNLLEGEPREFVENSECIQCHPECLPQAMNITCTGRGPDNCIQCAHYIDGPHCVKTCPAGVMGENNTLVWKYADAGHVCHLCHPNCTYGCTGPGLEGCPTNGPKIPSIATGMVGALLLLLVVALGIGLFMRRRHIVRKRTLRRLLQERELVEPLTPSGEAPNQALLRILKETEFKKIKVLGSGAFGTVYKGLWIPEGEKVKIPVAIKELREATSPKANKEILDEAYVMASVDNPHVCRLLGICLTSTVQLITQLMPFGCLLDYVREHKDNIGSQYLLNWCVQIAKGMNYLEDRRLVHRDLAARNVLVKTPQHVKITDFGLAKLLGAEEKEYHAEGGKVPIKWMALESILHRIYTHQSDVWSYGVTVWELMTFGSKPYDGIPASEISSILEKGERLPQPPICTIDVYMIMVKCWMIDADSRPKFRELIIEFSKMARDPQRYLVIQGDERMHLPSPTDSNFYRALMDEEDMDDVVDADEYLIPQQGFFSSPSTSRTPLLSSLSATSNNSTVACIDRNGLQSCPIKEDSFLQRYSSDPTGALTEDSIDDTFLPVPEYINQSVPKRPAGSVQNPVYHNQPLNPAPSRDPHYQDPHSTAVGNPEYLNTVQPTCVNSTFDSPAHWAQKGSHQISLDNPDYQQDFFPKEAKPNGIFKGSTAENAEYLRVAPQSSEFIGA
T1 sequence (P11388 whole entry): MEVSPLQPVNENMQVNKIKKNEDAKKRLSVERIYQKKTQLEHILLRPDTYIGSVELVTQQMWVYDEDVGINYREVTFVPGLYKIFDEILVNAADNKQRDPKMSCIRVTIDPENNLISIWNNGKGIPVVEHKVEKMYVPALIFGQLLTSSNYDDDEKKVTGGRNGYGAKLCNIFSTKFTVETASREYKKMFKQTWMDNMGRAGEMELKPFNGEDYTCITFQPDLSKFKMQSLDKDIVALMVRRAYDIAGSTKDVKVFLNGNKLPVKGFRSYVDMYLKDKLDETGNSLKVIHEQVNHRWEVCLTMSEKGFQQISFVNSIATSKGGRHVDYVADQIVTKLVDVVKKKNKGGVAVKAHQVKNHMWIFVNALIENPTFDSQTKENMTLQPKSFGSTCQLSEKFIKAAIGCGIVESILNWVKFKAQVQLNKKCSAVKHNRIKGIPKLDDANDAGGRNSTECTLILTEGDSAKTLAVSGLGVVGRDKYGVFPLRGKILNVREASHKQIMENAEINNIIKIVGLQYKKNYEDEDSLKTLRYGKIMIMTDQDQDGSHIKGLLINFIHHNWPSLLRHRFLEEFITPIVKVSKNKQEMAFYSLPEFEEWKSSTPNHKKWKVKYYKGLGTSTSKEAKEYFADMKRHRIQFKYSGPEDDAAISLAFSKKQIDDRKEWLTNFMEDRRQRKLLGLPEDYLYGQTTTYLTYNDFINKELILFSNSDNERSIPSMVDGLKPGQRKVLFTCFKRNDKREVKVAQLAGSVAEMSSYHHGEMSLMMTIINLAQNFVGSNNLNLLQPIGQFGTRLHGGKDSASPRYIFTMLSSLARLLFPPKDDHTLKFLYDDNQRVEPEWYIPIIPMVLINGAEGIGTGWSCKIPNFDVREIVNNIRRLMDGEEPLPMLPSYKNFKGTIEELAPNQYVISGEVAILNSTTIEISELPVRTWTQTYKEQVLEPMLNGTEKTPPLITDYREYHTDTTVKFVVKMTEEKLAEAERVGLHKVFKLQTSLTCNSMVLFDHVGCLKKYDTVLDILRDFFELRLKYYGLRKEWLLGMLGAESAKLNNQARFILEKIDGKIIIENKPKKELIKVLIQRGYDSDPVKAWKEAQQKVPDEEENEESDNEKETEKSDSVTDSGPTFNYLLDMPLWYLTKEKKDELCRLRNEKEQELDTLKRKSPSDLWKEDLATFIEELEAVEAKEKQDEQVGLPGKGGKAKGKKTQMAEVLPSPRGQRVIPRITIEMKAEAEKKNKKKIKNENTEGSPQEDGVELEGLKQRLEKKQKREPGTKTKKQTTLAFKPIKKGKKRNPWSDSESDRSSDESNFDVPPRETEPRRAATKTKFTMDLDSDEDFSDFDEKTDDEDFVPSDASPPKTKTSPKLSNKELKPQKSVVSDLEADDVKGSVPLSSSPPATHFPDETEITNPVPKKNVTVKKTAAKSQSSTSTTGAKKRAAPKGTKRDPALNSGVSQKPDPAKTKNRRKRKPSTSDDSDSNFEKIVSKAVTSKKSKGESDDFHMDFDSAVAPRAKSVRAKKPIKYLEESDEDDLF

Regarding `COc1ccc(N(C)c2ncnc3ccccc23)cc1` [Example 34, (4-Methoxy-phenyl)-methyl-quinazolin-4-yl-amine], the EC50 (in general, the concentration needed to bring the measured effect to its halfway point) worked out at 7 nM with T-47D cells [1] (T-47D, 24 hr, read-out: Caspase potency EC50 (nM) T-47D (24 hr)) and 7 nM with T-47D cells [1] (Table III, time not printed (values repeat Table I 24 hr or 48 hr), read-out: Caspase activation (EC50 nM)). Moreover, the “Caspase activity Ratio T-47D (24 hr)” value in the experiment with T-47D cells [1] (T-47D, 24 hr, ratio of net RFU to control) came out at 7.5. Also, in [2], the negative-log IC50 (pIC50) (usually the IC50 on a negative log10 scale, so that one unit is a factor of ten) is 6.00. Further, the GI50 (in general, the concentration that inhibits growth by half) with DLD cells was found to be 76 nM; with T-47D cells [3], 503 nM; in the experiment on SW620 cells it was 55 nM; with H1299 cells it was 59 nM; in the experiment with MX-1 cells it was 73 nM.
Consider `CN(c1ccccc1)c1ncnc2ccccc12` [R1═Me, R2═R3═R4═H], for which, in experiment [4], the pIC50 is less than 4.00.
For “Radiolabeled (4-Azido-phenyl)-(2-methyl-quinazolin-4-yl)-methyl-amine [Radiolabeled Example 102 compound]”, the “Binding to Topoisomerase II (UV crosslinking)” value in experiment [5] is “binds sufficiently well to Topoisomerase II to crosslink to the enzyme when photoactivated”.
